According to patent US11040028B2, “Penicinotam derivative, preparation method and use thereof” (OCEAN UNIVERSITY OF CHINA, priority 2017, dated 2021):

Key:
Type in all cases: cell-based
BHK-21 cells = experiment: Anti-fibrosis activity test: inhibition of BHK-21 cell proliferation (CCK-8); conditions: Mesocricetus auratus, BHK-21, 48 h, CCK-8, 48 hours after administration
Procedure: (§1) BHK-21 cells in exponential growth phase were selected. After the fusion growth reached 85-95%, normal passage method was utilized to digest and collect the cells, followed by cell counting and adjusting the cell density to 2×10^4 cells/mL. The cells were seeded into 96-well plates, 100 μL/well, and were incubated under the condition of 5% CO2 at 37° C.
(§2) The supernatant was removed after the cells had adhered to the wall for 24 hours. The culture solution containing the prepared compounds at different concentrations were added to the wells, 100 μL/well, each concentration in triplicate. The cells were subcultured for 48 hours after administration. Commercially available pirfenidone was employed as the positive control.
(§3) 10 μL of CCK-8 solution ( 1/10 of the volume of the culture solution) was added to each well 48 hours after the administration, and incubated for 2 hours. The absorbance (A) of each well was determined by a microplate reader at 450 nm wavelength. The inhibition rate against cell proliferation for each compound was calculated based on A, wherein inhibition rate against cell proliferation (inhibition ratio, IR)=(1−value of experimental group (Ai)/value of blank control group (Ao))×100% and the IC50 value of each compound was calculated by the data processing software.

[1] = test system: human lung fibroblasts HFL1; experiment: Anti-fibrosis activity test: inhibition of proliferation of human lung fibroblasts HFL1 (CCK-8); conditions: Homo sapiens, HFL1, 48 h, human lung fibroblasts HFL1, CCK-8, 48 hours
Procedure: as §1, §2, §3
(§4) Using the same protocol for the cell experiments, the inhibitory activity of the test compounds against the proliferation of human lung fibroblasts HFL1, human hepatic stellate cells LX-2, human fibrosarcoma cells HT-1080, human dermal fibroblasts CCC-ESF-1, human embryonic lung fibroblast IMR-90, cardiac fibroblast RAT-iCell-C002 was assayed.

[2] = test system: human hepatic stellate cells LX-2; experiment: Anti-fibrosis activity test: inhibition of proliferation of human hepatic stellate cells LX-2 (CCK-8); conditions: Homo sapiens, 48 h, human hepatic stellate cells LX-2, CCK-8, 48 hours
Procedure: as §1, §2, §3, §4

[3] = test system: human fibrosarcoma cells HT-1080; experiment: Anti-fibrosis activity test: inhibition of proliferation of human fibrosarcoma cells HT-1080 (CCK-8); conditions: Homo sapiens, HT-1080, 48 h, human fibrosarcoma cells HT-1080, CCK-8, 48 hours
Procedure: as §1, §2, §3, §4

[4] = test system: human dermal fibroblasts CCC-ESF-1; experiment: Anti-fibrosis activity test: inhibition of proliferation of human dermal fibroblasts CCC-ESF-1 (CCK-8); conditions: Fibroblast; human dermal fibroblasts CCC-ESF-1, CCK-8, 48 hours
Procedure: as §1, §2, §3, §4

[5] = test system: human embryonic lung fibroblast IMR-90; experiment: Anti-fibrosis activity test: inhibition of proliferation of human embryonic lung fibroblast IMR-90 (CCK-8); conditions: human embryonic lung fibroblast IMR-90, CCK-8, 48 hours
Procedure: as §1, §2, §3, §4

[6] = test system: cardiac fibroblast RAT-iCell-C002; experiment: Anti-fibrosis activity test: inhibition of proliferation of cardiac fibroblast RAT-iCell-C002 (CCK-8); conditions: Cardiac fibroblast, 48 h, cardiac fibroblast RAT-iCell-C002, CCK-8, 48 hours
Procedure: as §1, §2, §3, §4

Row | SMILES | IC50 (BHK-21 cells) [mM] | IC50 [1] [mM] | IC50 [2] [mM] | IC50 [3] [mM] | IC50 [4] [mM] | IC50 [5] [mM] | IC50 [6] [mM]
1 | O=C1c2c(nc3cc(N4CCNCC4)c(F)cc3c2OCc2cc(C(F)(F)F)cc(C(F)(F)F)c2)-c2cccn21 [Compound 639b, 9-((3,5-bis(trifluoromethyl)benzyl)oxy)-7-fluoro-6-(piperazin-1-yl)-10H-pyrrolizino[1,2-b]quinolin-10-one] | 0.05 to 5 | 0.05 to 5 | 0.05 to 5 | 0.05 to 5 | 0.05 to 5 | 0.05 to 5 | 0.05 to 5
2 | CC(C)CCOc1c2c(nc3cc(N4CCNCC4)c(F)cc13)-c1cccn1C2=O [Compound 347b, 7-fluoro-9-(isopentyloxy)-6-(piperazin-1-yl)-10H-pyrrolizino[1,2-b]quinolin-10-one] | 0.05 to 5 | 0.05 to 5 | 0.05 to 5 | 0.05 to 5 | 0.05 to 5 | 0.05 to 5 | 0.05 to 5
3 | O=C1c2c(n(Cc3ccccc3Cl)c3cccc(Cl)c3c2=O)-c2cccn21 [Compound 645a, 8-Chloro-4-(2-chlorobenzyl)-9H-pyrrolizino[1,2-b]quinoline-9,10(4H)-dione] | 0.05 to 5 | 0.05 to 5 | 0.05 to 5 | 0.05 to 5 | < 0.05 | 0.05 to 5 | 0.05 to 5
4 | N#Cc1ccccc1-c1ccc(Cn2c3c(c(=O)c4cc(F)c(N5CCNCC5)cc42)C(=O)n2cccc2-3)cc1 [Compound 638a, 4′-((7-Fluoro-9,10-dioxo-6-(piperazin-1-yl)-9H-pyrrolizino[1,2-b]quinolin-4(10H)-yl)methyl)-[1,1′-biphenyl]-2-carbonitrile] | 0.05 to 5 | 0.05 to 5 | 0.05 to 5 | 0.05 to 5 | 0.05 to 5 | 0.05 to 5 | 0.05 to 5
5 | N#Cc1ccc(Cn2c3c(c(=O)c4cc(C#N)c(N5CCNCC5)cc42)C(=O)n2cccc2-3)cc1 [Compound 641a, 4-(4-Cyanobenzyl)-9,10-dioxo-6-(piperazin-1-yl)-4,10-dihydro-9H-pyrrolizino[1,2-b]quinoline-7-carbonitrile] | 0.05 to 5 | 0.05 to 5 | 0.05 to 5 | 0.05 to 5 | 0.05 to 5 | 0.05 to 5 | 0.05 to 5
6 | O=C1c2c(n(Cc3ccc(F)cc3)c3cc(N4CCNCC4)c(F)cc3c2=O)-c2cccn21 [Compound 634a, 7-Fluoro-4-(4-fluorobenzyl)-6-(piperazin-1-yl)-9H-pyrrolizino[1,2-b]quinoline-9,10(4H)-dione] | 0.05 to 5 | 0.05 to 5 | 0.05 to 5 | 0.05 to 5 | 0.05 to 5 | 0.05 to 5 | 0.05 to 5
7 | O=C1c2c([nH]c3cc(N4CCNCC4)c(F)cc3c2=O)-c2cccn21 [Compound 346a, 7-Fluoro-6-(piperazin-1-yl)-9H-pyrrolizino[1,2-b]quinoline-9,10(4H)-dione] | 0.05 to 5 | 0.05 to 5 | 0.05 to 5 | 0.05 to 5 | 0.05 to 5 | 0.05 to 5 | 0.05 to 5
8 | O=C1c2c(n(Cc3ccc(Br)cc3)c3cc(N4CCNCC4)c(F)cc3c2=O)-c2cccn21 [Compound 633a, 4-(4-Bromobenzyl)-7-fluoro-6-(piperazin-1-yl)-9H-pyrrolizino[1,2-b]quinoline-9,10(4H)-dione] | < 0.05 | 0.05 to 5 | 0.05 to 5 | 0.05 to 5 | 0.05 to 5 | 0.05 to 5 | 0.05 to 5
9 | N#Cc1ccccc1-c1ccc(COc2c3c(nc4cc(N5CCNCC5)c(F)cc24)-c2cccn2C3=O)cc1 [Compound 638b, 4′-(((7-fluoro-10-oxo-6-(piperazin-1-yl)-10H-pyrrolizino[1,2-b]quinolin-9-yl)oxy)methyl)-[1,1′-biphenyl]-2-carbonitrile] | 0.05 to 5 | 0.05 to 5 | 0.05 to 5 | 0.05 to 5 | 0.05 to 5 | 0.05 to 5 | 0.05 to 5
10 | N#Cc1ccc(Cn2c3c(c(=O)c4cc(F)c(N5CCNCC5)cc42)C(=O)n2cccc2-3)cc1 [Compound 635a, 4-((7-Fluoro-9,10-dioxo-6-(piperazin-1-yl)-9H-pyrrolizino[1,2-b]quinolin-4(10H)-yl)methyl)benzonitrile] | 0.05 to 5 | 0.05 to 5 | 0.05 to 5 | 0.05 to 5 | 0.05 to 5 | 0.05 to 5 | 0.05 to 5
11 | O=C1c2c(nc3cc(N4CCNCC4)cc(F)c3c2OCc2ccc(F)cc2)-c2cccn21 [Compound 646b, 8-fluoro-9-((4-fluorobenzyl)oxy)-6-(piperazin-1-yl)-10H-pyrrolizino[1,2-b]quinolin-10-one] | 0.05 to 5 | 0.05 to 5 | 0.05 to 5 | 0.05 to 5 | 0.05 to 5 | 0.05 to 5 | 0.05 to 5
12 | O=C1c2c(n(Cc3ccc(C(F)(F)F)cc3)c3cc(N4CCNCC4)c(F)cc3c2=O)-c2cccn21 [Compound 636a, 7-Fluoro-6-(piperazin-1-yl)-4-(4-(trifluoromethyl)benzyl)-9H-pyrrolizino[1,2-b]quinoline-9,10(4H)-dione] | 0.05 to 5 | 0.05 to 5 | 0.05 to 5 | 0.05 to 5 | < 0.05 | 0.05 to 5 | 0.05 to 5
13 | N#Cc1ccc(COc2c3c(nc4cc(N5CCNCC5)c(F)cc24)-c2cccn2C3=O)cc1 [Compound 635b, 4-(((7-fluoro-10-oxo-6-(piperazin-1-yl)-10H-pyrrolizino[1,2-b]quinolin-9-yl)oxy)methyl)benzonitrile] | 0.05 to 5 | 0.05 to 5 | 0.05 to 5 | 0.05 to 5 | 0.05 to 5 | 0.05 to 5 | 0.05 to 5
14 | N#Cc1ccccc1-c1ccc(COc2c3c(nc4cc(N5CCNCC5)c(C#N)cc24)-c2cccn2C3=O)cc1 [Compound 644b, 9-((2′-cyano-[1,1′-biphenyl]-4-yl)methoxy)-10-oxo-6-(piperazin-1-yl)-10H-pyrrolizino[1,2-b]quinoline-7-carbonitrile] | 0.05 to 5 | 0.05 to 5 | 0.05 to 5 | 0.05 to 5 | 0.05 to 5 | 0.05 to 5 | 0.05 to 5
15 | N#Cc1ccccc1-c1ccc(Cn2c3c(c(=O)c4cc(C#N)c(N5CCNCC5)cc42)C(=O)n2cccc2-3)cc1 [Compound 644a, 4-((2′-Cyano-[1,1′-biphenyl]-4-yl)methyl)-9,10-dioxo-6-(piperazin-1-yl)-4,10-dihydro-9H-pyrrolizino[1,2-b]quinoline-7-carbonitrile] | 0.05 to 5 | 0.05 to 5 | 0.05 to 5 | 0.05 to 5 | 0.05 to 5 | 0.05 to 5 | 0.05 to 5
16 | O=C1c2c(n(Cc3ccc(-c4ccccc4)cc3)c3cc(N4CCNCC4)c(F)cc3c2=O)-c2cccn21 [Compound 637a, 4-([1,1′-Biphenyl]-4-ylmethyl)-7-fluoro-6-(piperazin-1-yl)-9H-pyrrolizino[1,2-b]quinoline-9,10(4H)-dione] | < 0.05 | 0.05 to 5 | 0.05 to 5 | 5 to 20 | 0.05 to 5 | 0.05 to 5 | 0.05 to 5
